Common to all, as to type: physicochemical
The nature of series [1]: Evaluation of light fastness-1 (OD value of printed portion after 100 hours xenon fadeometer). The note with it: ink prepared as in Example 1 from the salt named in the row; OD value of printed portion after 100 hours xenon fadeometer. The method, then: (§1) The prepared ink was filled in an ink cartridge for a piezo-type ink-jet printer EM-930C (manufactured by Seiko Epson). The printing was performed with this printer, and the light fastness was evaluated. Further, the storage stability of the ink was evaluated.
(A)-1 Evaluation of Light Fastness-1
Printing density (OD value) was measured after irradiating a printed portion with light for 100 hours using a xenon fadeometer (manufactured by Suga Shikenki) to evaluate the light fastness.

A short description of series [2]: Evaluation of light fastness-2 (OD value of printed portion after 400 hours xenon fadeometer). Particulars: ink prepared as in Example 1 from the salt named in the row; OD value of printed portion after 400 hours xenon fadeometer. The method, then:
as §1
(A)-2 Evaluation of Light Fastness-2
Printing density (OD value) was measured after irradiating a printed-portion with light for 400 hours using axenon fadeometer (manufactured by Suga Shikenki), and the light fastness was evaluated.

A short description of series [3]: Evaluation of moisture resistance (image-recorded paper at 40° C. and humidity 85%, visual observation). The note with it: image-recorded paper at 40° C. and humidity 85%, visually observed.
Series [4] is described as follows: Evaluation of storage stability of ink (40° C. for 3 months, insoluble matter and clogging). The note with it: recording liquid stored at 40° C. for 3 months; insoluble matter and clogging. The method, then: as §1
(C) Evaluation of Storage Stability of Ink:
After a recording liquid was stored at 40° C. for 3 months, it was observedwhether or not an insoluble matterwas precipitated, and whether or not clogging occurred after continuous recording with the foregoing printer for a long period of time.

With `Cc1c(N=Nc2cc(C(=O)O)ccc2C(=O)O)c(O)n(CCNC(=O)c2cc(C(=O)NCCn3c(O)c(N=Nc4cc(C(=O)O)ccc4C(=O)O)c(C)c(C#N)c3=O)c(C(=O)O)cc2C(=O)O)c(=O)c1C#N` [Compound 296], in series [1], the “(A)-1 light fastness-1” value is “⊚”. The “(A)-2 light fastness-2” value in series [2] is “⊚”. Further, in series [3], the “(B) moisture resistance” value is “⊚”. In addition, in series [4], the “(C) storage stability” value was “◯”.

As to `N#Cc1c(C(F)(F)F)c(N=Nc2cc(C(=O)O)ccc2C(=O)O)c(O)n(CCNC(=O)c2cc(C(=O)O)c(C(=O)NCCn3c(O)c(N=Nc4cc(C(=O)O)ccc4C(=O)O)c(C(F)(F)F)c(C#N)c3=O)cc2C(=O)O)c1=O` [Compound 291], in series [1], the “(A)-1 light fastness-1” value was “⊚”. In addition, the “(A)-2 light fastness-2” value in series [2] was “⊚⊚”. In series [3], the “(B) moisture resistance” value is “⊚”. In series [4], the “(C) storage stability” value is “◯”.

On to `Cc1c(N=Nc2cccc(C(=O)O)c2C(=O)O)c(O)n(CCNc2nc(NCCn3c(O)c(N=Nc4cccc(C(=O)O)c4C(=O)O)c(C)c(C#N)c3=O)nc(NCCn3c(O)c(N=Nc4cccc(C(=O)O)c4C(=O)O)c(C)c(C#N)c3=O)n2)c(=O)c1C#N` [Compound 268], for which the “(A)-1 light fastness-1” value in series [1] is given as “⊚”. The “(A)-2 light fastness-2” value in series [2] was “◯”. In series [3], the “(B) moisture resistance” value is listed as “⊚”. Also, the “(C) storage stability” value in series [4] is “Δ”.

Take `Cc1c(N=Nc2cccc(C(=O)O)c2C(=O)O)c(O)n(CC(O)C(O)C(O)C(O)C(O)CO)c(=O)c1C#N` (stereo not drawn) [compound 29]: the “(A)-1 light fastness-1” value in series [1] is listed as “⊚”. For the same compound, the “(A)-2 light fastness-2” value in series [2] is “◯ and Δ”. The “(B) moisture resistance” value in series [3] is “◯”. The “(C) storage stability” value in series [4] is “◯ and Δ”.

With `Cc1c(N=Nc2cc(C(=O)O)ccc2C(=O)O)c(O)n(CCNc2nc(Cl)nc(NCCn3c(O)c(N=Nc4cc(C(=O)O)ccc4C(=O)O)c(C)c(C(N)=O)c3=O)n2)c(=O)c1C(N)=O` [Compound 252], the “(A)-1 light fastness-1” value in series [1] is “⊚”. Also, in series [2], the “(A)-2 light fastness-2” value is recorded as “◯”. The “(B) moisture resistance” value in series [3] is reported as “⊚”. Moreover, the “(C) storage stability” value in series [4] was “Δ”.

For the compound `Cc1c(N=Nc2cc(C(=O)O)ccc2C(=O)O)c(O)n(CCCNc2nc(Cl)nc(NCCCn3c(O)c(N=Nc4cc(C(=O)O)ccc4C(=O)O)c(C)c(C#N)c3=O)n2)c(=O)c1C#N` [Compound 247], in series [1], the “(A)-1 light fastness-1” value was “⊚”. Also, the “(A)-2 light fastness-2” value in series [2] was “◯”. In addition, the “(B) moisture resistance” value in series [3] was “⊚”. Moreover, the “(C) storage stability” value in series [4] was “◯”.

`N#Cc1c(-c2ccccc2)c(N=Nc2cc(C(=O)O)ccc2C(=O)O)c(O)n(CCNC(=O)c2cc(C(=O)O)c(C(=O)NCCn3c(O)c(N=Nc4cc(C(=O)O)ccc4C(=O)O)c(-c4ccccc4)c(C#N)c3=O)cc2C(=O)O)c1=O` [Compound 285]: in series [1], the “(A)-1 light fastness-1” value was “⊚”. The “(A)-2 light fastness-2” value in series [2] is listed as “⊚⊚”. In addition, in series [3], the “(B) moisture resistance” value is listed as “⊚”. In addition, the “(C) storage stability” value in series [4] was “◯”.

With `CCCCc1c(N=Nc2cc(C(=O)O)ccc2C(=O)O)c(O)n(CCNc2nc(NCCn3c(O)c(N=Nc4cc(C(=O)O)ccc4C(=O)O)c(CCCC)c(C#N)c3=O)nc(NCCn3c(O)c(N=Nc4cc(C(=O)O)ccc4C(=O)O)c(CCCC)c(C#N)c3=O)n2)c(=O)c1C#N` [Compound 271], the “(A)-1 light fastness-1” value in series [1] was “⊚”. In addition, the “(A)-2 light fastness-2” value in series [2] is on record as “⊚”. Also, in series [3], the “(B) moisture resistance” value is “⊚”. The “(C) storage stability” value in series [4] is recorded as “◯”.

For the compound `Cc1c(N=Nc2cc(C(=O)O)ccc2C(=O)O)c(O)n(CCCCCCNc2nc(Cl)nc(NCCCCCCn3c(O)c(N=Nc4cc(C(=O)O)ccc4C(=O)O)c(C)c(C#N)c3=O)n2)c(=O)c1C#N` [Compound No. 246], the “(A)-1 light fastness-1” value in series [1] is listed as “⊚”. The “(A)-2 light fastness-2” value in series [2] was “Δ”. The “(B) moisture resistance” value in series [3] is reported as “⊚”. In series [4], the “(C) storage stability” value is “Δ”.

In the case of `CCc1c(N=Nc2cc(C(=O)O)ccc2C(=O)O)c(O)n(CCNc2nc(Cl)nc(NCCn3c(O)c(N=Nc4cc(C(=O)O)ccc4C(=O)O)c(C(F)(F)F)c(C#N)c3=O)n2)c(=O)c1C#N` [Compound 250], the “(A)-1 light fastness-1” value in series [1] is “⊚”. In addition, the “(A)-2 light fastness-2” value in series [2] is listed as “◯”. Moreover, in series [3], the “(B) moisture resistance” value is given as “⊚”. The “(C) storage stability” value in series [4] was “Δ”.

Turning to `Cc1c(N=Nc2cc(C(=O)O)ccc2C(=O)O)c(O)n(CCCCCCNC(=O)c2cc(C(=O)NCCCCCCn3c(O)c(N=Nc4cc(C(=O)O)ccc4C(=O)O)c(C)c(C#N)c3=O)c(C(=O)NCCn3c(O)c(N=Nc4cc(C(=O)O)ccc4C(=O)O)c(C)c(C#N)c3=O)cc2C(=O)NCCCCCCn2c(O)c(N=Nc3cc(C(=O)O)ccc3C(=O)O)c(C)c(C#N)c2=O)c(=O)c1C#N` [Compound 312], the “(A)-1 light fastness-1” value in series [1] is recorded as “⊚”. In series [2], the “(A)-2 light fastness-2” value is recorded as “⊚”. For the same compound, in series [3], the “(B) moisture resistance” value is on record as “⊚”. Also, the “(C) storage stability” value in series [4] is listed as “Δ”.

Take `Cc1c(N=Nc2cc(C(=O)O)ccc2C(=O)O)c(O)n(CCNC(=O)c2ccc(C(=O)NCCn3c(O)c(N=Nc4cc(C(=O)O)ccc4C(=O)O)c(C)c(C#N)c3=O)c(C(=O)NCCn3c(O)c(N=Nc4cc(C(=O)O)ccc4C(=O)O)c(C)c(C#N)c3=O)c2)c(=O)c1C#N` [Compound 305]: the “(A)-1 light fastness-1” value in series [1] is given as “⊚”. Besides, the “(A)-2 light fastness-2” value in series [2] was “⊚”. In addition, the “(B) moisture resistance” value in series [3] is “⊚”. Further, the “(C) storage stability” value in series [4] is “Δ”.

Regarding `CCc1c(N=Nc2cc(C(=O)O)ccc2C(=O)O)c(O)n(CCNc2nc(Cl)nc(NCCn3c(O)c(N=Nc4cc(C(=O)O)ccc4C(=O)O)c(CC)c(C#N)c3=O)n2)c(=O)c1C#N` [Compound 251], in series [1], the “(A)-1 light fastness-1” value is “⊚”. Also, the “(A)-2 light fastness-2” value in series [2] is listed as “⊚”. Further, the “(B) moisture resistance” value in series [3] is on record as “⊚”. For the same compound, in series [4], the “(C) storage stability” value is reported as “Δ”.

Take `Cc1c(N=Nc2cc(C(=O)O)ccc2C(=O)O)c(O)n(CCCCCCNC(=O)c2cc(C(=O)O)c(C(=O)NCCCCCCn3c(O)c(N=Nc4cc(C(=O)O)ccc4C(=O)O)c(C)c(C#N)c3=O)cc2C(=O)O)c(=O)c1C#N` [Compound 281]: the “(A)-1 light fastness-1” value in series [1] is recorded as “⊚”. Further, the “(A)-2 light fastness-2” value in series [2] is recorded as “◯”. In series [3], the “(B) moisture resistance” value is recorded as “⊚”. For the same compound, the “(C) storage stability” value in series [4] is given as “◯”.

For the compound `N#Cc1c(C(F)(F)F)c(N=Nc2cc(C(=O)O)ccc2C(=O)O)c(O)n(CCNc2nc(NCCn3c(O)c(N=Nc4cc(C(=O)O)ccc4C(=O)O)c(C(F)(F)F)c(C#N)c3=O)nc(NCCn3c(O)c(N=Nc4cc(C(=O)O)ccc4C(=O)O)c(C(F)(F)F)c(C#N)c3=O)n2)c1=O` [Compound 265], the “(A)-1 light fastness-1” value in series [1] is recorded as “⊚”. In addition, the “(A)-2 light fastness-2” value in series [2] was “⊚”. Besides, the “(B) moisture resistance” value in series [3] is “⊚”. In addition, the “(C) storage stability” value in series [4] is recorded as “Δ”.

In the case of `CC(C)(C)c1c(N=Nc2cc(C(=O)O)ccc2C(=O)O)c(O)n(CCn2c(=O)c3cc4c(=O)n(CCn5c(O)c(N=Nc6cc(C(=O)O)ccc6C(=O)O)c(C(C)(C)C)c(C#N)c5=O)c(=O)c4cc3c2=O)c(=O)c1C#N` [Compound 336], the “(A)-1 light fastness-1” value in series [1] is on record as “⊚”. Besides, the “(A)-2 light fastness-2” value in series [2] was “⊚⊚”. The “(B) moisture resistance” value in series [3] is given as “⊚”. In addition, the “(C) storage stability” value in series [4] was “◯”.

`CCc1c(N=Nc2cc(C(=O)O)ccc2C(=O)O)c(O)n(CCNC(=O)c2cc(C(=O)O)c(C(=O)NCCn3c(O)c(N=Nc4cc(C(=O)O)ccc4C(=O)O)c(CC)c(C#N)c3=O)cc2C(=O)O)c(=O)c1C#N` [Compound 283]: in series [1], the “(A)-1 light fastness-1” value is recorded as “⊚”. Besides, the “(A)-2 light fastness-2” value in series [2] was “⊚⊚”. In addition, the “(B) moisture resistance” value in series [3] is listed as “⊚”. In series [4], the “(C) storage stability” value is listed as “◯”.

In the case of `CCc1c(N=Nc2cc(C(=O)O)ccc2C(=O)O)c(O)n(CCNC(=O)c2ccc(C(=O)NCCn3c(O)c(N=Nc4cc(C(=O)O)ccc4C(=O)O)c(CC)c(C#N)c3=O)c(C(=O)NCCn3c(O)c(N=Nc4cc(C(=O)O)ccc4C(=O)O)c(CC)c(C#N)c3=O)c2)c(=O)c1C#N` [Compound 308], the “(A)-1 light fastness-1” value in series [1] is on record as “⊚”. Moreover, the “(A)-2 light fastness-2” value in series [2] was “⊚”. Besides, the “(B) moisture resistance” value in series [3] is listed as “⊚”. Also, the “(C) storage stability” value in series [4] is recorded as “Δ”.

Take `CCc1c(N=Nc2cc(C(=O)O)ccc2C(=O)O)c(O)n(CCNc2nc(NCCn3c(O)c(N=Nc4cc(C(=O)O)ccc4C(=O)O)c(CC)c(C#N)c3=O)nc(NCCn3c(O)c(N=Nc4cc(C(=O)O)ccc4C(=O)O)c(CC)c(C#N)c3=O)n2)c(=O)c1C#N` [Compound 273]: the “(A)-1 light fastness-1” value in series [1] was “⊚”. The “(A)-2 light fastness-2” value in series [2] is “⊚”. Moreover, the “(B) moisture resistance” value in series [3] was “⊚”. Further, in series [4], the “(C) storage stability” value is on record as “◯”.

In the case of `CCCCc1c(N=Nc2cc(C(=O)O)ccc2C(=O)O)c(O)n(CCNC(=O)c2cc(C(=O)O)c(C(=O)NCCn3c(O)c(N=Nc4cc(C(=O)O)ccc4C(=O)O)c(CCCC)c(C#N)c3=O)cc2C(=O)O)c(=O)c1C#N` [Compound 284], the “(A)-1 light fastness-1” value in series [1] is “⊚”. Besides, the “(A)-2 light fastness-2” value in series [2] is reported as “⊚⊚”. Moreover, in series [3], the “(B) moisture resistance” value was “⊚”. Further, the “(C) storage stability” value in series [4] is “◯”.

In the case of `Cc1c(N=Nc2c(C(=O)O)cccc2C(=O)O)c(O)n(CCNc2nc(Cl)nc(NCCn3c(O)c(N=Nc4c(C(=O)O)cccc4C(=O)O)c(C)c(C#N)c3=O)n2)c(=O)c1C#N` [Compound 256], the “(A)-1 light fastness-1” value in series [1] was “⊚”. For the same compound, the “(A)-2 light fastness-2” value in series [2] is “◯”. Also, in series [3], the “(B) moisture resistance” value is reported as “⊚”. Besides, the “(C) storage stability” value in series [4] is on record as “Δ”.

The values are drawn from patent US20040231558A1, “Water-color ink” (priority 2001, published 2004).
